Test results reported in ChEMBL document CHEMBL1687693, “Facile synthesis of a fluorescent cyclosporin a analogue to study cyclophilin 40 and cyclophilin 18 ligands” (ACS Med Chem Lett, 2010).

How the values were obtained:
[1] = target: T1, Peptidyl-prolyl cis-trans isomerase D (Homo sapiens, UniProt Q08752); assay: Inhibition of Cyclophilin 40 PPIase activity
[2] = target: T2, Peptidyl-prolyl cis-trans isomerase A (Homo sapiens, UniProt P62937); assay: Inhibition of Cyclophilin 18 PPIase activity
[3] = target: T1, Peptidyl-prolyl cis-trans isomerase D; assay: Inhibition of cyclosporin binding to Cyp40 by fluorescence polarization competition assay
[4] = target: T2, Peptidyl-prolyl cis-trans isomerase A; assay: Inhibition of cyclosporin binding to Cyp18 by fluorescence polarization competition assay

T1 sequence (Q08752 whole entry): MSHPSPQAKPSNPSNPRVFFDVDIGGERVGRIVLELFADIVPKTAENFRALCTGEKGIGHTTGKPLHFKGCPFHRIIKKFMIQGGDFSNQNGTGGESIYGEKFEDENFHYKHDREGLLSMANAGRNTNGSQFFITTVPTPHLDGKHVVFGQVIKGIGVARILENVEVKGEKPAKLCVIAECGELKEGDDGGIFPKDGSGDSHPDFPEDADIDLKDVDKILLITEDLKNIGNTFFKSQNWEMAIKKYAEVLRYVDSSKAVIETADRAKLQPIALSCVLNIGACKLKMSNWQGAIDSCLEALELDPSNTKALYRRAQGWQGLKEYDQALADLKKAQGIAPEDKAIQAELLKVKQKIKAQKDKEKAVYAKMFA
T2 sequence (P62937 whole entry): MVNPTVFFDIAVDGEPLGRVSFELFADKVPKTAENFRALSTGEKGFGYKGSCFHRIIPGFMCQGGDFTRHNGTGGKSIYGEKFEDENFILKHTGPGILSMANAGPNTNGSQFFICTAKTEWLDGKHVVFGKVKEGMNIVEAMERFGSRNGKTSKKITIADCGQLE

- Ki [1]: 0.012 µM
- Ki [2]: 0.106 µM
- Kd [3]: 0.101 µM
- Kd [4]: 0.012 µM
SMILES: CC[C@@H]1NC(=O)[C@H]([C@H](O)[C@H](C)C/C=C/c2ccc(CNC(=O)c3ccc(-c4c5ccc(=O)cc-5oc5cc(O)ccc45)c(C(=O)O)c3)cc2)N(C)C(=O)[C@H](C(C)C)N(C)C(=O)[C@H](CC(C)C)N(C)C(=O)[C@H](CC(C)C)N(C)C(=O)[C@@H](C)NC(=O)[C@H](C)NC(=O)[C@H](CC(C)C)N(C)C(=O)[C@H](C(C)C)NC(=O)[C@H](CC(C)C)N(C)C(=O)CN(C)C1=O
